We go through 29 compounds from patent publication US20090093473A1, “Spiro-benzimidazoles as inhibitors of gastric acid secretion” (priority 2005, published 2009).

The test system of series [1] is pentagastrin-stimulated acid secretion of the perfused rat stomach. Put plainly: Secretion-inhibiting action on the perfused rat stomach (pentagastrin-stimulated acid secretion). The settings on record: intraduodenal, anesthetized CD rat, dose 1 μmol/kg i.d. Type of series: in vivo. From the text: Testing of the Secretion-Inhibiting Action on the Perfused Rat Stomach
In Table A which follows, the influence of the compounds of the formula 1 according to the invention on the pentagastrin-stimulated acid secretion of the perfused rat stomach after intraduodenal administration in vivo is shown.
The abdomen of anesthetized rats (CD rat, female, 200-250 g; 1.5 g/kg i.m. urethane) was opened after tracheotomy by a median upper abdominal incision and a PVC catheter was fixed transorally in the esophagus and another via the pylorus such that the ends of the tubes just projected into the gastric lumen. The catheter leading from the pylorus led outward into the right abdominal wall through a side opening.
After thorough rinsing (about 50-100 ml), warm (37° C.) physiological NaCl solution was conbinuously passed through the stomach (0.5 ml/min, pH 6.8-6.9; Braun-Unita I). The pH (pH meter 632, glass electrode EA 147; φ=5 mm, Metrohm) and, by titration with a freshly prepared 0.01N NaOH solution to pH 7 (Dosimat 665 Metrohm), the secreted HCl were determined in the effluent in each case collected at an interval of 15 minutes.
The gastric secretion was stimulated by continuous infusion of 1 μg/kg (=1.65 mllh) of i.v. pentagastrin (left femoral vein) about 30 min after the end of the operation (i.e. after determination of 2 preliminary fractions). The substances to be tested were administered intraduodenally in a 2.5 ml/kg liquid volume 60 min after the start of the continuous pentagastrin infusion. The body temperature of the animals was kept at a constant 37.8-38° C. by infrared irradiation and heat pads (automatic, stepless control by means of a rectal temperature sensor).

A value given as a limit tells only on which side of the number the result lay.

On to `CNC(=O)c1cc2c(nc(C)n2C)c2c1CCC1(Cc3ccccc3C1)N2.Cl`, for which the melting point fell in the range of 309 to 311 °C.

For `COCCNC(=O)c1cc2c(nc(C)n2C)c2c1CCC1(Cc3ccccc3C1)N2.Cl`, the melting point lay within 294 to 295 °C.

On to `CCOC(=O)c1cc2c(nc(C)n2C)c2c1CCC1(Cc3ccccc3C1)N2` [Example 1, Ethyl 2,3-dimethyl-1′,3,3′,6,7,9-hexahydrospiro[imidazo[4,5-h]quinoline-8,2′-indene]-5-carboxylate], for which the melting point was in the range of 167 to 168 °C.

`C=CCn1c(C)nc2c3c(c(C(=O)OC)cc21)CCC1(Cc2ccccc2C1)N3` [Example 2, Methyl 3-allyl-2-methyl-1′,3,3′,6,7,9-hexahydrospiro[imidazo[4,5-h]quinoline-8,2′-indene]-5-carboxylate] returned a melting point of 142 to 142.5 °C.

Turning to `C=CCn1c(C)nc2c3c(c(C(=O)OCC)cc21)CCC1(Cc2ccccc2C1)N3` [Example 3, Ethyl 3-allyl-2-methyl-1′,3,3′,6,7,9-hexahydrospiro[imidazo[4,5-h]quinoline-8,2′-indene]-5-carboxylate], the melting point turned out to be 150 °C.

The compound `CNC(=O)c1cc2c(nc(C)n2C)c2c1CCC1(Cc3ccccc3C1)N2` [Example 4, N,2,3-Trimethyl-1′,3,3′,6,7,9-hexahydrospiro[imidazo[4,5-h]quinoline-8,2′-indene]-5-carboxamide] came in with a melting point of 237 to 238 °C. In series [1], this compound returned an inhibition in vivo at 1 µmol/kg greater than 80%.

In the case of `Cc1nc2c3c(c(CO)cc2n1C)CCC1(Cc2ccccc2C1)N3` [Example 6, (2,3-Dimethyl-1′,3,3′,6,7,9-hexahydrospiro[imidazo[4,5-h]quinoline-8,2′-inden]-5-yl)-methanol], the melting point is 272 to 274 °C.

With `CNC(=O)c1cc2[nH]c(C)nc2c2c1CCC1(Cc3ccccc3C1)N2` [Example 9, N,2-dimethyl-1′,3,3′,6,7,9-hexahydrospiro[imidazo[4,5-h]quinoline-8,2′-indene]-5-carboxamide], the melting point fell in the range of 240 to 241 °C.

On to `Cc1nc2c3c(c(C(=O)N(C)C)cc2[nH]1)CCC1(Cc2ccccc2C1)N3` [Example 10, N,N,2-Trimethyl-1′,3,3′,6,7,9-hexahydrospiro[imidazo[4,5-h]quinoline-8,2′-indene]-5-carboxamide], for which the melting point was determined as 183 °C.

For `Cc1nc2c3c(c(C(=O)N(C)C)cc2n1C)CCC1(Cc2ccccc2C1)N3` [Example 11, N,N,2,3-tetramethyl-1′,3,3′,6,7,9-hexahydrospiro[imidazo[4,5-h]quinoline-8,2′-indene]-5-carboxamide], the melting point was 178 to 179 °C. Besides, in series [1], the inhibition in vivo at 1 µmol/kg was greater than 80%.

Compound `Cc1nc2c3c(c(C(=O)N(C)CCO)cc2n1C)CCC1(Cc2ccccc2C1)N3` [Example 12, N-(2-hydroxyethyl)-N,2,3-trimethyl-1′,3,3′,6,7,9-hexahydrospiro[imidazo[4,5-h]quinoline-8,2′-indene]-5-carboxamide] returned a melting point of 194 to 195 °C.

The compound `Cc1nc2c3c(c(C(=O)N4CC(O)C4)cc2n1C)CCC1(Cc2ccccc2C1)N3` [Example 13, 1-[(2,3-dimethyl-1′,3,3′,6,7,9-hexahydrospiro[imidazo[4,5-h]quinoline-8,2′-inden]-5-yl)-carbonyl]azetidin-3-ol] yielded a melting point of 171 to 172 °C.

`CC(=O)CNC(=O)c1cc2c(nc(C)n2C)c2c1CCC1(Cc3ccccc3C1)N2` [Example 14, 2,3-dimethyl-N-(2-oxopropyl)-1′,3,3′,6,7,9-hexahydrospiro[imidazo[4,5-h]quinoline-8,2′-indene]-5-carboxamide] returned a melting point of 222 to 223 °C. For the same compound, the inhibition in vivo at 1 µmol/kg in series [1] was greater than 80%.

`Cc1nc2c3c(c(C(=O)N4CC(F)C4)cc2n1C)CCC1(Cc2ccccc2C1)N3` [Example 15, 5-[(3-fluoroazetidin-1-yl)carbonyl]-2,3-dimethyl-1′,3,3′,6,7,9-hexahydrospiro[imidazo[4,5-h]quinoline-8,2′-indene]] showed a melting point of 259 to 260 °C. The inhibition in vivo at 1 µmol/kg in series [1] was greater than 80%.

For `COCCNC(=O)c1cc2c(nc(C)n2C)c2c1CCC1(Cc3ccccc3C1)N2` [Example 16, N-(2-methoxyethyl)-2,3-dimethyl-1′,3,3′,6,7,9-hexahydrospiro[imidazo[4,5-h]quinoline-8,2′-indene]-5-carboxamide], the melting point lay within 186 to 187 °C. The compound also displayed an inhibition in vivo at 1 µmol/kg in series [1] greater than 80%.

For the compound `Cc1nc2c3c(c(C(=O)NCCO)cc2n1C)CCC1(Cc2ccccc2C1)N3` [Example 17, N-(2-hydroxyethyl)-2,3-dimethyl-1′,3,3′,6,7,9-hexahydrospiro[imidazo[4,5-h]quinoline-8,2′-indene]-5-carboxamide], the melting point was in the range of 167 to 168 °C.

As for `Cc1nc2c3c(c(C(N)=O)cc2n1C)CCC1(Cc2ccccc2C1)N3` [Example 18, 2,3-dimethyl-1′,3,3′,6,7,9-hexahydrospiro[imidazo[4,5-h]quinoline-8,2′-indene]-5-carboxamide], the melting point is 272 to 273 °C. For the same compound, in series [1], the inhibition in vivo at 1 µmol/kg is greater than 80%.

`Cc1nc2c3c(c(C(=O)N(C)C[C@H](C)O)cc2n1C)CCC1(Cc2ccccc2C1)N3` [Example 19, N-[(2S)-2-hydroxypropyl]-N,2,3-trimethyl-1′,3,3′,6,7,9-hexahydrospiro[imidazo[4,5-h]-quinoline-8,2′-indene]-5-carboxamide] gave a melting point of 258 to 259 °C.

In turn, `Cc1nc2c3c(c(C(=O)NC[C@H](C)O)cc2n1C)CCC1(Cc2ccccc2C1)N3` [Example 20, N-[(2S)-2-hydroxypropyl]-2,3-dimethyl-1′,3,3′,6,7,9-hexahydrospiro[imidazo[4,5-h]-quinoline-8,2′-indene]-5-carboxamide] gave a melting point of 224 to 225 °C.

As to `COCCN(C)C(=O)c1cc2c(nc(C)n2C)c2c1CCC1(Cc3ccccc3C1)N2` [Example 21, N-(2-methoxyethyl)-N,2,3-trimethyl-1′,3,3′,6,7,9-hexahydrospiro[imidazo[4,5-h]quinoline-8,2′-indene]-5-carboxamide], the melting point lay within 160 to 161 °C. In addition, in series [1], the inhibition in vivo at 1 µmol/kg was greater than 80%.

For `Cc1nc2c3c(c(C(=O)NCCCO)cc2n1C)CCC1(Cc2ccccc2C1)N3` [Example 26, N-(3-hydroxypropyl)-2,3-dimethyl-1′,3,3′,6,7,9-hexahydrospiro[imidazo[4,5-h]quinoline-8,2′-indene]-5-carboxamide], the melting point was in the range of 237 to 238 °C.

For `CNC(=O)c1cc2c(nc(C)n2C)c2c1CCC1(Cc3ccccc3C1)N2.CS(=O)(=O)O` [Example 28, N,2,3-Trimethyl-1′,3,3′,6,7,9-hexahydrospiro[imidazo[4,5-h]quinoline-8,2′-indene]-5-carboxamide methanesulphonate], the melting point was in the range of 321 to 324 °C.

`CNC(=O)c1cc2c(nc(C)n2C)c2c1CCC1(Cc3ccccc3C1)N2.O=C(O)CC(=O)O` [Example 30, N,2,3-Trimethyl-1′,3,3′,6,7,9-hexahydrospiro[imidazo[4,5-h]quinoline-8,2′-indene]-5-carboxamide malonate] had a melting point of 261 to 263 °C.

Regarding `CCOCCNC(=O)c1cc2c(nc(C)n2C)c2c1CCC1(Cc3ccccc3C1)N2` [Example 31, N-(2-ethoxyethyl)-2,3-dimethyl-1′,3,3′,6,7,9-hexahydrospiro[imidazo[4,5-h]quinoline-8,2′-indene]-5-carboxamide], the melting point is 180 to 181 °C.

Compound `CCNC(=O)c1cc2c(nc(C)n2C)c2c1CCC1(Cc3ccccc3C1)N2` [Example 32, N-ethyl-2,3-dimethyl-1′,3,3′,6,7,9-hexahydrospiro[imidazo[4,5-h]quinoline-8,2′-indene]-5-carboxamide] registered a melting point of 223 to 224 °C.

Consider `COCCNC(=O)c1cc2c(nc(C)n2C)c2c1CCC1(Cc3ccccc3C1)N2.O=C(O)/C=C\C(=O)O` [Example 33, N-(2-methoxyethyl)-2,3-dimethyl-1′,3,3′,6,7,9-hexahydrospiro[imidazo[4,5-h]quinoline-8,2′-indene]-5-carboxamide maleate], for which the melting point was 191 to 192 °C.

Consider `COCCNC(=O)c1cc2c(nc(C)n2C)c2c1CCC1(Cc3ccccc3C1)N2.O=C(O)CC(=O)O` [Example 34, N-(2-methoxyethyl)-2,3-dimethyl-1′,3,3′,6,7,9-hexahydrospiro[imidazo[4,5-h]quinoline-8,2′-indene]-5-carboxamide malonate], for which the melting point was 176 to 177 °C.

As to `Cc1nc2c3c(c(C(=O)NC4CC4)cc2n1C)CCC1(Cc2ccccc2C1)N3.O=C(O)C(=O)O` [Example 36, N-cyclopropyl-2,3-dimethyl-1′,3,3′,6,7,9-hexahydrospiro[imidazo[4,5-h]quinoline-8,2′-indene]-5-carboxamide oxalate], the melting point was 242 to 243 °C.

`CS(=O)(=O)O.Cc1nc2c3c(c(C(=O)NC4CC4)cc2n1C)CCC1(Cc2ccccc2C1)N3` [Example 37, N-cyclopropyl-2,3-dimethyl-1′,3,3′,6,7,9-hexahydrospiro[imidazo[4,5-h]quinoline-8,2′-indene]-5-carboxamide methanesulphonate] registered a melting point of 308 to 309 °C.
